Experimental data published in PubChem BioAssay (NCI).
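Five concentrations, 48 hours, 96-well plates. Definition used: TGI = concentration required for complete inhibition of growth.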

What was measured:
Assay in all cases: NCI-60 cell line screen, 48 h
CAKI-1 renal = test system: CAKI-1 renal
OVCAR-5 ovarian = test system: OVCAR-5 ovarian
RPMI-8226 leukemia = test system: RPMI-8226 leukemia
SNB-19 CNS = test system: SNB-19 CNS
DU-145 prostate = test system: DU-145 prostate
BT-549 breast = test system: BT-549 breast
COLO 205 colon = test system: COLO 205 colon
SF-539 CNS = test system: SF-539 CNS
MOLT-4 leukemia = test system: MOLT-4 leukemia
HS 578T breast = test system: HS 578T breast
SK-MEL-2 melanoma = test system: SK-MEL-2 melanoma
EKVX NSCLC = test system: EKVX NSCLC
MALME-3M melanoma = test system: MALME-3M melanoma
UACC-257 melanoma = test system: UACC-257 melanoma
IGROV1 ovarian = test system: IGROV1 ovarian
PC-3 prostate = test system: PC-3 prostate
HOP-62 NSCLC = test system: HOP-62 NSCLC
MDA-N = test system: MDA-N
M14 melanoma = test system: M14 melanoma
NCI-H23 lung = test system: NCI-H23 lung
SNB-75 CNS = test system: SNB-75 CNS
A549 NSCLC = test system: A549 NSCLC
NCI/ADR-RES ovarian = test system: NCI/ADR-RES ovarian
HCC-2998 colon = test system: HCC-2998 colon
NCI-H226 lung = test system: NCI-H226 lung
UO-31 renal = test system: UO-31 renal
SK-MEL-5 melanoma = test system: SK-MEL-5 melanoma
KM12 colon = test system: KM12 colon
SN12C renal = test system: SN12C renal
T-47D breast = test system: T-47D breast
HOP-92 NSCLC = test system: HOP-92 NSCLC
OVCAR-8 ovarian = test system: OVCAR-8 ovarian
OVCAR-4 ovarian = test system: OVCAR-4 ovarian
OVCAR-3 ovarian = test system: OVCAR-3 ovarian
A498 renal = test system: A498 renal
MCF7 breast = test system: MCF7 breast
MDA-MB-435 = test system: MDA-MB-435
HL-60(TB) leukemia = test system: HL-60(TB) leukemia
K-562 leukemia = test system: K-562 leukemia
HCT-15 colon = test system: HCT-15 colon
NCI-H522 lung = test system: NCI-H522 lung
SR leukemia = test system: SR leukemia
TK-10 renal = test system: TK-10 renal
U251 CNS = test system: U251 CNS
RXF 393 renal = test system: RXF 393 renal
HT29 colon = test system: HT29 colon
NCI-H460 lung = test system: NCI-H460 lung
MDA-MB-231 breast = test system: MDA-MB-231 breast
SK-MEL-28 melanoma = test system: SK-MEL-28 melanoma
SW-620 colon = test system: SW-620 colon
SF-268 CNS = test system: SF-268 CNS
ACHN renal = test system: ACHN renal
UACC-62 melanoma = test system: UACC-62 melanoma
HCT-116 colon = test system: HCT-116 colon
CCRF-CEM leukemia = test system: CCRF-CEM leukemia
SK-OV-3 ovarian = test system: SK-OV-3 ovarian
SF-295 CNS = test system: SF-295 CNS
LOX IMVI melanoma = test system: LOX IMVI melanoma
786-0 renal = test system: 786-0 renal

Compound: c1ccc2c(c1)c1c(n2CCOCCCN2CCCCC2)CCCC1
- TGI (CAKI-1 renal): 39.3 µM
- TGI (OVCAR-5 ovarian): 30 µM
- TGI (RPMI-8226 leukemia): 92 µM
- TGI (SNB-19 CNS): 75.4 µM
- TGI (DU-145 prostate): > 100 µM
- TGI (BT-549 breast): 29.6 µM
- TGI (COLO 205 colon): 45.5 µM
- TGI (SF-539 CNS): 31.3 µM
- TGI (MOLT-4 leukemia): 19.6 µM
- TGI (HS 578T breast): 47.8 µM
- TGI (SK-MEL-2 melanoma): 37.6 µM
- TGI (EKVX NSCLC): 62.5 µM
- TGI (MALME-3M melanoma): 33.3 µM
- TGI (UACC-257 melanoma): 32.9 µM
- TGI (IGROV1 ovarian): 29.2 µM
- TGI (PC-3 prostate): 33.1 µM
- TGI (HOP-62 NSCLC): 30.6 µM
- TGI (MDA-N): 47.8 µM
- TGI (M14 melanoma): > 100 µM
- TGI (NCI-H23 lung): 37.9 µM
- TGI (SNB-75 CNS): 38.7 µM
- TGI (A549 NSCLC): 39.2 µM
- TGI (NCI/ADR-RES ovarian): 40.6 µM
- TGI (HCC-2998 colon): 33.7 µM
- TGI (NCI-H226 lung): 32.5 µM
- TGI (UO-31 renal): 25.4 µM
- TGI (SK-MEL-5 melanoma): 40.7 µM
- TGI (KM12 colon): 30 µM
- TGI (SN12C renal): 34.3 µM
- TGI (T-47D breast): 43.9 µM
- TGI (HOP-92 NSCLC): 58.1 µM
- TGI (OVCAR-8 ovarian): 32.5 µM
- TGI (OVCAR-4 ovarian): 57 µM
- TGI (OVCAR-3 ovarian): 30.7 µM
- TGI (A498 renal): 91.9 µM
- TGI (MCF7 breast): 31.5 µM
- TGI (MDA-MB-435): 33.8 µM
- TGI (HL-60(TB) leukemia): 30.4 µM
- TGI (K-562 leukemia): 30.9 µM
- TGI (HCT-15 colon): 27.6 µM
- TGI (NCI-H522 lung): 29.8 µM
- TGI (SR leukemia): 35.1 µM
- TGI (TK-10 renal): 31.9 µM
- TGI (U251 CNS): 30.5 µM
- TGI (RXF 393 renal): 25.1 µM
- TGI (HT29 colon): 24.7 µM
- TGI (NCI-H460 lung): 29.8 µM
- TGI (MDA-MB-231 breast): 40.1 µM
- TGI (SK-MEL-28 melanoma): 38.5 µM
- TGI (SW-620 colon): 39.6 µM
- TGI (SF-268 CNS): 99.8 µM
- TGI (ACHN renal): 28.4 µM

Compound: CC(C)(C)OC(=O)C1CCC/C1=N/Nc1ccc([N+](=O)[O-])cc1[N+](=O)[O-] (stereo not given)
- TGI (CAKI-1 renal): > 100 µM
- TGI (OVCAR-5 ovarian): > 100 µM
- TGI (RPMI-8226 leukemia): > 100 µM
- TGI (SNB-19 CNS): > 100 µM
- TGI (DU-145 prostate): > 100 µM
- TGI (BT-549 breast): 93.2 µM
- TGI (UACC-62 melanoma): > 100 µM
- TGI (COLO 205 colon): > 100 µM
- TGI (MOLT-4 leukemia): > 100 µM
- TGI (HS 578T breast): > 100 µM
- TGI (HCT-116 colon): 78.5 µM
- TGI (EKVX NSCLC): 89.9 µM
- TGI (MALME-3M melanoma): > 100 µM
- TGI (IGROV1 ovarian): > 100 µM
- TGI (CCRF-CEM leukemia): > 100 µM
- TGI (PC-3 prostate): > 100 µM
- TGI (HOP-62 NSCLC): > 100 µM
- TGI (MDA-N): > 100 µM
- TGI (M14 melanoma): > 100 µM
- TGI (NCI-H23 lung): 63.5 µM
- TGI (SNB-75 CNS): 73.9 µM
- TGI (A549 NSCLC): > 100 µM
- TGI (NCI/ADR-RES ovarian): > 100 µM
- TGI (HCC-2998 colon): > 100 µM
- TGI (NCI-H226 lung): > 100 µM
- TGI (UO-31 renal): > 100 µM
- TGI (SK-MEL-5 melanoma): 29.3 µM
- TGI (KM12 colon): > 100 µM
- TGI (SN12C renal): > 100 µM
- TGI (SK-OV-3 ovarian): > 100 µM
- TGI (T-47D breast): 88.1 µM
- TGI (HOP-92 NSCLC): > 100 µM
- TGI (OVCAR-8 ovarian): > 100 µM
- TGI (OVCAR-4 ovarian): > 100 µM
- TGI (OVCAR-3 ovarian): > 100 µM
- TGI (SF-295 CNS): 88.9 µM
- TGI (LOX IMVI melanoma): > 100 µM
- TGI (786-0 renal): > 100 µM
- TGI (A498 renal): 65.4 µM
- TGI (MCF7 breast): > 100 µM
- TGI (MDA-MB-435): 53.2 µM
- TGI (HL-60(TB) leukemia): > 100 µM
- TGI (K-562 leukemia): > 100 µM
- TGI (HCT-15 colon): > 100 µM
- TGI (NCI-H522 lung): > 100 µM
- TGI (SR leukemia): > 100 µM
- TGI (TK-10 renal): > 100 µM
- TGI (U251 CNS): 56.1 µM
- TGI (RXF 393 renal): > 100 µM
- TGI (HT29 colon): > 100 µM
- TGI (NCI-H460 lung): > 100 µM
- TGI (MDA-MB-231 breast): > 100 µM
- TGI (SK-MEL-28 melanoma): > 100 µM
- TGI (SW-620 colon): > 100 µM
- TGI (SF-268 CNS): > 100 µM
- TGI (ACHN renal): > 100 µM

Compound: O=c1[nH]nc(-c2ccccc2)n1/N=C\CC/C=N\n1c(-c2ccccc2)n[nH]c1=O
- TGI (CAKI-1 renal): > 100 µM
- TGI (OVCAR-5 ovarian): > 100 µM
- TGI (RPMI-8226 leukemia): 99.8 µM
- TGI (SNB-19 CNS): > 100 µM
- TGI (DU-145 prostate): > 100 µM
- TGI (BT-549 breast): 60.9 µM
- TGI (UACC-62 melanoma): 43.5 µM
- TGI (COLO 205 colon): > 100 µM
- TGI (SF-539 CNS): > 69.5 µM
- TGI (MOLT-4 leukemia): > 31.6 µM
- TGI (HS 578T breast): > 83.7 µM
- TGI (SK-MEL-2 melanoma): 50.9 µM
- TGI (HCT-116 colon): > 66.7 µM
- TGI (EKVX NSCLC): > 100 µM
- TGI (MALME-3M melanoma): 72.4 µM
- TGI (UACC-257 melanoma): > 100 µM
- TGI (IGROV1 ovarian): > 85.2 µM
- TGI (PC-3 prostate): > 77.5 µM
- TGI (HOP-62 NSCLC): 98.7 µM
- TGI (MDA-N): 44.3 µM
- TGI (M14 melanoma): 47.1 µM
- TGI (NCI-H23 lung): 21.7 µM
- TGI (SNB-75 CNS): > 100 µM
- TGI (A549 NSCLC): > 100 µM
- TGI (NCI/ADR-RES ovarian): 96.9 µM
- TGI (HCC-2998 colon): > 100 µM
- TGI (NCI-H226 lung): > 72.2 µM
- TGI (UO-31 renal): > 100 µM
- TGI (SK-MEL-5 melanoma): > 56 µM
- TGI (KM12 colon): > 100 µM
- TGI (SN12C renal): 47 µM
- TGI (SK-OV-3 ovarian): > 100 µM
- TGI (T-47D breast): 99 µM
- TGI (HOP-92 NSCLC): 84.6 µM
- TGI (OVCAR-8 ovarian): > 86.9 µM
- TGI (OVCAR-4 ovarian): > 100 µM
- TGI (OVCAR-3 ovarian): 51.8 µM
- TGI (SF-295 CNS): > 100 µM
- TGI (LOX IMVI melanoma): 27.1 µM
- TGI (786-0 renal): 75.9 µM
- TGI (MCF7 breast): > 92.2 µM
- TGI (MDA-MB-435): 60.8 µM
- TGI (HL-60(TB) leukemia): > 100 µM
- TGI (K-562 leukemia): > 100 µM
- TGI (HCT-15 colon): 49.9 µM
- TGI (NCI-H522 lung): > 100 µM
- TGI (SR leukemia): > 94.8 µM
- TGI (TK-10 renal): > 100 µM
- TGI (U251 CNS): > 100 µM
- TGI (RXF 393 renal): > 100 µM
- TGI (HT29 colon): 42.5 µM
- TGI (NCI-H460 lung): > 74.5 µM
- TGI (MDA-MB-231 breast): > 81.4 µM
- TGI (SK-MEL-28 melanoma): > 54.6 µM
- TGI (SW-620 colon): > 100 µM
- TGI (SF-268 CNS): > 71 µM
- TGI (ACHN renal): > 100 µM
